Reference: publication PMC3166973 (Journal of structural biology, 2011)
Changes are numbered by the printed parent chain. In names and notes the source's numbering stands.

What was measured:
[1] = target: T1, hDHFR Q35S (Homo sapiens, UniProt P00374, Q36S); experiment: Standard DHFR assay, kinetic constants; assay type: biochemical; conditions: read-out: Km NADPH
T1 sequence (P00374 1-187 Q36S): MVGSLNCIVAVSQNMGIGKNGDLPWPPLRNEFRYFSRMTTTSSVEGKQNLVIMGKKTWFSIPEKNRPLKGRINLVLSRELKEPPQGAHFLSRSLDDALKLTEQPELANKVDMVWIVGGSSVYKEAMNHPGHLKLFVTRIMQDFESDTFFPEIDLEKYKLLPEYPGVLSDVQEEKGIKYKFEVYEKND

[2] = target: T2, hDHFR Q35S/N64F (Homo sapiens, UniProt P00374, N65F/Q36S); experiment: Standard DHFR assay, kinetic constants; assay type: biochemical; conditions: read-out: Km NADPH
T2 sequence (P00374 1-187 Q36S/N65F): T1 sequence (P00374 1-187 Q36S) with N65F

[3] = target: T3, hDHFR Q35K/N64F (Homo sapiens, UniProt P00374, N65F/Q36K); experiment: Standard DHFR assay, kinetic constants; assay type: biochemical; conditions: read-out: Km NADPH
T3 sequence (P00374 1-187 Q36K/N65F): T1 sequence (P00374 1-187 Q36S) with S36K, N65F

[4] = target: T4, hDHFR Q35S/N64S (Homo sapiens, UniProt P00374, N65S/Q36S); experiment: Standard DHFR assay, kinetic constants; assay type: biochemical; conditions: read-out: Km NADPH
T4 sequence (P00374 1-187 Q36S/N65S): T1 sequence (P00374 1-187 Q36S) with N65S

[5] = target: T5, hDHFR Q35K (Homo sapiens, UniProt P00374, Q36K); experiment: Standard DHFR assay, kinetic constants; assay type: biochemical; conditions: read-out: Km NADPH
T5 sequence (P00374 1-187 Q36K): T1 sequence (P00374 1-187 Q36S) with S36K

[6] = target: pcDHFR (Pneumocystis carinii, UniProt P16184); assay type: biochemical; conditions: read-out: Km NADPH
Sequence of pcDHFR (P16184 whole entry): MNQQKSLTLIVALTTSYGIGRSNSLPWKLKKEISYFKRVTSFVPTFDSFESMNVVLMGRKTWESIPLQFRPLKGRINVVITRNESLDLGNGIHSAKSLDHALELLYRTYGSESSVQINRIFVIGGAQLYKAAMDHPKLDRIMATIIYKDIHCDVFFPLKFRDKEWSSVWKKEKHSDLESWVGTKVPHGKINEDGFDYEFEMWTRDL

[7] = target: T6, hDHFR (Homo sapiens, UniProt P00374); experiment: Standard DHFR assay, kinetic constants; assay type: biochemical; conditions: read-out: Km NADPH; wild type hDHFR
T6 sequence (P00374 1-187): T1 sequence (P00374 1-187 Q36S) with S36Q

[8] = target: T7, hDHFR N64S (Homo sapiens, UniProt P00374, N65S); experiment: Standard DHFR assay, kinetic constants; assay type: biochemical; conditions: read-out: Km NADPH
T7 sequence (P00374 1-187 N65S): T1 sequence (P00374 1-187 Q36S) with S36Q, N65S

[9] = target: T8, hDHFR Q35K/N64S (Homo sapiens, UniProt P00374, N65S/Q36K); experiment: Standard DHFR assay, kinetic constants; assay type: biochemical; conditions: read-out: Km NADPH
T8 sequence (P00374 1-187 Q36K/N65S): T1 sequence (P00374 1-187 Q36S) with S36K, N65S

[10] = target: T9, pjDHFR (Pneumocystis jirovecii, UniProt Q9UUP5); experiment: Standard DHFR assay; conditions: read-out: Km NADPH, substrate at saturating concentration
T9 sequence (Q9UUP5 1-206): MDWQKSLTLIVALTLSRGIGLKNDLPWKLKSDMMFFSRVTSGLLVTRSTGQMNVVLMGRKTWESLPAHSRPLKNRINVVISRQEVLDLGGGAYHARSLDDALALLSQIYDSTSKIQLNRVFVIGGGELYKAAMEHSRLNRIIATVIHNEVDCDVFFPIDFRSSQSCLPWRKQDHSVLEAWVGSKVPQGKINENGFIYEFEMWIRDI

[11] = target: T10, hDHFR N64F (Homo sapiens, UniProt P00374, N65F); experiment: Standard DHFR assay, kinetic constants; assay type: biochemical; conditions: read-out: Km NADPH
T10 sequence (P00374 1-187 N65F): T1 sequence (P00374 1-187 Q36S) with S36Q, N65F

[12] = substrate: Nc1nc2c(c(=O)[nH]1)N=C(CNc1ccc(C(=O)N[C@@H](CCC(=O)O)C(=O)O)cc1)CN2; experiment: purified protein, by the assay type; conditions: pH 7.4

Q: NC(=O)C1=CN([C@@H]2O[C@H](COP(=O)(O)OP(=O)(O)OC[C@H]3O[C@@H](n4cnc5c(N)ncnc54)[C@H](OP(=O)(O)O)[C@@H]3O)[C@@H](O)[C@H]2O)C=CC1 [NADPH] was tested. Which Km [1] did it give?
A: 3.8 ± 1.4 µM

Q: And the Km [2]?
A: 5.6 ± 0.5 µM

Q: And the Km [3]?
A: 5.7 ± 1.1 µM

Q: What about the Km [4] of the same molecule?
A: 5.3 ± 1.5 µM

Q: And the Km [5]?
A: 12.5 µM

Q: And the Km [6]?
A: 16 ± 2 µM

Q: And the Km [7]?
A: 4.5 ± 1.2 µM

Q: What about the Km [8] of the same molecule?
A: 6.3 µM

Q: What about the Km [9] of the same molecule?
A: 6.6 ± 1.8 µM

Q: What about the Km [10] of the same molecule?
A: 19 ± 1 µM

Q: And the Km [11]?
A: 7.5 ± 3.1 µM

B1: pjDHFR (Pneumocystis jirovecii) (protein)
chain: T9 sequence (Q9UUP5 1-206)
Q: With B1 as the molecule, how does the Km ([12]; other: pjDHFR, cofactor at saturating concentration) read?
A: 2.2 ± 0.2^1 (n=13) μM

B2: hDHFR Q35K/N64S (Homo sapiens; N65S/Q36K) (protein)
chain: T1 sequence (P00374 1-187 Q36S) with S36K, N65S
Q: B2 was tested. Which Km ([12]; other: hDHFR Q35K/N64S, 37.0 °C) did it give?
A: 0.7 ± 0.2 (n=6) μM

B3: hDHFR (Homo sapiens) (protein)
chain: T1 sequence (P00374 1-187 Q36S) with S36Q
Q: With B3 as the molecule, how does the Km ([12]; other: wild type hDHFR, 37.0 °C) read?
A: 0.7 ± 0.1 (n=8) μM

B4: hDHFR N64S (Homo sapiens; N65S) (protein)
chain: T1 sequence (P00374 1-187 Q36S) with S36Q, N65S
Q: How did the Km ([12]; other: hDHFR N64S, 37.0 °C) turn out when B4 was run?
A: 0.9 ± 0.3 (n=3) μM

B5: hDHFR Q35S (Homo sapiens; Q36S) (protein)
chain: T1 sequence (P00374 1-187 Q36S)
Q: How did the Km ([12]; other: hDHFR Q35S, 37.0 °C) turn out when B5 was run?
A: 0.7 ± 0.2 (n=4) μM

B6: hDHFR Q35S/N64F (Homo sapiens; N65F/Q36S) (protein)
chain: T1 sequence (P00374 1-187 Q36S) with N65F
Q: For B6, which Km ([12]; other: hDHFR Q35S/N64F, 37.0 °C) is on record?
A: 0.7 ± 0.2 (n=5) μM
